# According to patent US7538102B2, “Compounds for the treatment of Hepatitis C” (Bristol-Myers Squibb Company, priority 2007, dated 2009):
# How the values were obtained:
# HCV replicon = HCV replicon FRET / luciferase assay; assay type: cell-based; conditions: Hepatitis C virus; HCV replicon cells; 50% reduction in FRET or luciferase activity; read-out: EC50
# Protocol: FRET Assay Preparation. The HCV FRET screening assay was performed in 96-well cell culture plates. The FRET peptide (Anaspec, Inc.) (Taliani et al., Anal. Biochem. 1996, 240, 60-67) contains a fluorescence donor, EDANS, near one end of the peptide and an acceptor, DABCYL, near the other end. The fluorescence of the peptide is quenched by […] resonance energy transfer (RET) between the donor and the acceptor, but as the NS3 protease cleaves the peptide the products are released from RET quenching and the fluorescence of the donor becomes apparent. The assay reagent was made as follows: 5× cell Luciferase cell culture lysis reagent from Promega (#E153A) diluted to 1× with dH2O, NaCl added to 150 mM final, the FRET peptide diluted to 20 μM final from a 2 mM stock.
# To prepare plates, HCV replicon cells, with or without a Renilla luciferase reporter gene, were trypsinized and plated in a 96-well plate with titrated test compounds added in columns 3 through 12; columns 1 and 2 contained a control compound (HCV control inhibitor), and the bottom row contained cells with DMSO only. The plates were then placed in a CO2 incubator at 37° C.
# Assays. Subsequent to addition of the test compounds described above (FRET Assay Preparation), at various times the plate was removed and Alamar blue solution (Trek Diagnostics, #00-100) was added to measure cellular toxicity. After reading in a Cytoflour 4000 instrument (PE Biosystems), plates were rinsed with PBS and then used for FRET assay by the addition of 30 ul of the FRET peptide assay reagent described above (FRET Assay Preparation) per well. The plate was then placed into the Cytoflour 4000 instrument which had been set to 340 excite/490 emission, automatic mode for up to 20 cycles and the plate read in a kinetic mode. Typically, the signal to noise using an endpoint analysis after the reads was at least three-fold. Alternatively, after Alamar blue reading, plates were rinsed with PBS, then used for luciferase assay using the Promega Dual-Glo Luciferase Assay System or the Promega EnduRen Live Cell Substrate assay.
# Compound analysis was performed by quantification of the relative HCV replicon inhibition and the relative cytotoxicity values. To calculate cytoxicity values, the average Alamar Blue fluorescence signals from the control wells were set as 100% non-toxic. The individual signals in each of the compound test wells were then divided by the average control signal and multiplied by 100% to determine […]. To calculate the HCV replicon inhibition values, an average background value was obtained from the two wells containing the highest amount of HCV control inhibitor at the end of the assay period. These numbers were similar to those obtained from naive Huh-7 cells. The background numbers were then subtracted from the average signal obtained from the control wells and this number was used as 100% activity. The individual signals in each of the compound test wells were then divided by the averaged control values after background subtraction and multiplied by 100% to determine percent activity. EC50 values were calculated as the concentration which caused a 50% reduction in FRET or luciferase activity. The two numbers generated for the compound plate, percent cytoxicity and percent activity, were used to determine compounds of interest for further analysis.
# HCV NS5B = molecular target: T1, HCV NS5B (Hepatitis C virus genotype 1b, UniProt Q9WMX2); assay: HCV NS5B RdRp enzyme assay (standard or modified); assay type: biochemical; conditions: HCV NS5B RdRp genotype 1b; standard or modified enzyme assay not specified; read-out: IC50
# T1 construct: The protein was expressed with an 18 amino acid C-terminal truncation to enhance the solubility; made in house; host or cells: E. coli BL21(DE3)
# Protocol: HCV NS5B RdRp cloning, expression, and purification. The cDNA encoding the NS5B protein of HCV, genotype 1b, was cloned into the pET21a expression vector. The protein was expressed with an 18 amino acid C-terminal truncation to enhance the solubility. The E. coli competent cell line BL21(DE3) was used for expression of the protein. Cultures were grown at 37° C. for ˜4 hours until the cultures reached an optical density of 2.0 at 600 nm. The cultures were cooled to 20° C. and induced with 1 mM IPTG. Fresh ampicillin was added to a final concentration of 50 μg/ml and the cells were grown overnight at 20° C.
# Cell pellets (3 L) were lysed for purification to yield 15-24 mgs of purified NS5B. The lysis buffer consisted of 20 mM Tris-HCl, pH 7.4, 500 mM NaCl, 0.5% triton X-100, 1 mM DTT, 1mM EDTA, 20% glycerol, 0.5 mg/ml lysozyme, 10 mM MgCl2, 15 ug/ml deoxyribonuclease I, and Complete TM protease inhibitor tablets (Roche). After addition of the lysis buffer, frozen cell pellets were resuspended using a tissue homogenizer. To reduce the viscosity of the sample, aliquots of the lysate were sonicated on ice using a microtip attached to a Branson sonicator. The sonicated lysate was centrifuged at 100,000×g for 1 hr at 4° C. and filtered through a 0.2 μm filter unit (Corning).
# The protein was purified using two sequential chromatography steps: Heparin sepharose CL-6B and polyU sepharose 4B (Pharmacia). The chromatography buffers were identical to the lysis buffer but contained no lysozyme, deoxyribonuclease I, MgCl2 or protease inhibitor and the NaCl concentration of the buffer was adjusted according to the requirements for charging the protein onto the column. Each column was eluted with a NaCl gradient which varied in length from 5-50 column volumes depending on the column type. After the final chromatography step, the resulting purity of the enzyme is >90% based on SDS-PAGE analysis. The enzyme was aliquoted and stored at −80° C.
# Standard HCV NS5B RdRp enzyme assay. HCV RdRp genotype 1b assays were run in a final volume of 60 μl in 96 well plates (Corning 3600). The assay buffer is composed of 20 mM Hepes, pH 7.5, 2.5 mM KCl, 2.5 mM MgCl2, 1 mM DTT, 1.6 U RNAse inhibitor (Promega N2515), 0.01 mg/ml BSA (Sigma B6917), and 2% glycerol. All compounds were serially diluted (3-fold) in DMSO and diluted further in water such that the final concentration of DMSO in the assay was 2%. HCV RdRp genotype 1b enzyme was used at a final concentration of 28 nM. A polyA template was used at 6 nM, and a biotinylated oligo-dT12 primer was used at 180 nM final concentration. Template was obtained commercially (Amersham 27-4110). Biotinylated primer was prepared by Sigma Genosys. 3H-UTP was used at 0.6 μCi (0.29 μM total UTP). Reactions were initiated by the addition of enzyme, incubated at 30° C. for 60 min, and stopped by adding 25 μl of 50 mM EDTA containing SPA beads (4 μg/pl, Amersham RPNQ 0007). Plates were read on a Packard Top Count NXT after >1 hr incubation at room temperature.
# Modified HCV NS5B RdRp enzyme assay. A modified enzyme assay was performed essentially as described for the standard enzyme assay except for the following: The biotinylated oligo dT12 primer was precaptured on streptavidin-coated SPA beads by mixing primer and beads in assay buffer and incubating at room temperature for one hour. Unbound primer was removed after centrifugation. The primer-bound beads were resuspended in 20 mM Hepes buffer, pH 7.5 and used in the assay at final concentrations of 20 nM primer and 0.67 μg/μl beads. Order of addition in the assay: enzyme (1.75 nM) was added to diluted compound followed by the addition of a mixture of template (0.36 nM), 3H-UTP (0.6 μCi, 0.29 μM), and primer-bound beads, to initiate the reaction; concentrations given are final. Reactions were allowed to proceed for 4 hours at 30° C.
# IC50 values for compounds were determined using seven different [I]. […]
# T1 sequence (Q9WMX2 2420-2992): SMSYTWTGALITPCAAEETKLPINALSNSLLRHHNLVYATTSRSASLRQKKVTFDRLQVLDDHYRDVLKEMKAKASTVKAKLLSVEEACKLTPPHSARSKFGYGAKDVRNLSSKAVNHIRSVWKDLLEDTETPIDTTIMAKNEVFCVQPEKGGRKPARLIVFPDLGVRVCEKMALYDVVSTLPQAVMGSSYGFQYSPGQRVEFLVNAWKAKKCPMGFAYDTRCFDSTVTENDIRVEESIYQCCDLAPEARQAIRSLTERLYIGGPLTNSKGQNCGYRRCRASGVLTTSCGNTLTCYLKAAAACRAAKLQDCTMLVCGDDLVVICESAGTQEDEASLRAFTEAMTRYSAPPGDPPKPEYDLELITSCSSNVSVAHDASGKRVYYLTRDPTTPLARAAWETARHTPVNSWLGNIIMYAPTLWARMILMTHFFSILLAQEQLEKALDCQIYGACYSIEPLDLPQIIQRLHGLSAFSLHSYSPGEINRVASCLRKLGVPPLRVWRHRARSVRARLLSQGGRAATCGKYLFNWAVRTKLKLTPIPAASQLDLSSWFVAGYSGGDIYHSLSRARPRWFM
smiles,measurement,setting,value
COc1ccc2c(c1)C1CC1(C(=O)N(C)CC(=O)N1CCOCC1)Cn1c-2c(C2CCCCC2)c2ccc(C(=O)NS(=O)(=O)N(C)C)cc21 (stereo not drawn),EC50,HCV replicon,3 to 1000 nM
same,IC50,HCV NS5B,3 to 1000 nM
COc1ccc2c(c1)C1CC1(C(=O)N1CCN(c3cnccn3)CC1)Cn1c-2c(C2CCCCC2)c2ccc(C(=O)NS(=O)(=O)C3CC3)cc21 (stereo not drawn),EC50,HCV replicon,3 to 1000 nM
same,IC50,HCV NS5B,3 to 1000 nM
COc1ccc2c(c1)C1CC1(C(=O)O[C@@H]1C[C@H](C)CC[C@H]1C(C)C)Cn1c-2c(C2CCCCC2)c2ccc(C(=O)NS(=O)(=O)N(C)C)cc21 (stereo partly drawn),EC50,HCV replicon,> 1000 nM
same,IC50,HCV NS5B,3 to 1000 nM
COc1ccc2c(c1)C1CC1(C(=O)N(C)CC1(C3CCCCC3)CCCCC1)Cn1c-2c(C2CCCCC2)c2ccc(C(=O)NS(=O)(=O)N(C)C)cc21 (stereo not drawn),EC50,HCV replicon,3 to 1000 nM
same,IC50,HCV NS5B,3 to 1000 nM
COc1ccc2c(c1)C1CC1(C(=O)N1CCNC(c3ccccc3)C1)Cn1c-2c(C2CCCCC2)c2ccc(C(=O)NS(=O)(=O)N(C)C)cc21 (stereo not drawn),EC50,HCV replicon,3 to 1000 nM
same,IC50,HCV NS5B,3 to 1000 nM
COc1ccc2c(c1)C1CC1(C(=O)N1CCNC(c3cccc(Cl)c3)C1)Cn1c-2c(C2CCCCC2)c2ccc(C(=O)NS(=O)(=O)N(C)C)cc21 (stereo not drawn),EC50,HCV replicon,3 to 1000 nM
same,IC50,HCV NS5B,3 to 1000 nM
COc1ccc2c(c1)C1CC1(C(=O)N1CCNC(=O)CC1)Cn1c-2c(C2CCCCC2)c2ccc(C(=O)NS(=O)(=O)N(C)C)cc21 (stereo not drawn),EC50,HCV replicon,3 to 1000 nM
same,IC50,HCV NS5B,3 to 1000 nM
COc1ccc2c(c1)C1CC1(C(=O)N1CCCN(Cc3ccccc3)CC1)Cn1c-2c(C2CCCCC2)c2ccc(C(=O)NS(=O)(=O)N(C)C)cc21 (stereo not drawn),EC50,HCV replicon,3 to 1000 nM
same,IC50,HCV NS5B,3 to 1000 nM
COc1ccc2c(c1)C1CC1(C(=O)N1CCCN(C(C)=O)CC1)Cn1c-2c(C2CCCCC2)c2ccc(C(=O)NS(=O)(=O)N(C)C)cc21 (stereo not drawn),EC50,HCV replicon,3 to 1000 nM
same,IC50,HCV NS5B,3 to 1000 nM
COc1ccc2c(c1)C1CC1(C(=O)N1CCNC(c3ccc(F)cc3)C1)Cn1c-2c(C2CCCCC2)c2ccc(C(=O)NS(=O)(=O)N(C)C)cc21 (stereo not drawn),EC50,HCV replicon,3 to 1000 nM
same,IC50,HCV NS5B,3 to 1000 nM
COc1ccc(C2CN(C(=O)C34CC3c3cc(OC)ccc3-c3c(C5CCCCC5)c5ccc(C(=O)NS(=O)(=O)N(C)C)cc5n3C4)CCN2)cc1 (stereo not drawn),EC50,HCV replicon,3 to 1000 nM
same,IC50,HCV NS5B,3 to 1000 nM
COc1ccc2c(c1)C1CC1(C(=O)N1CCNC(c3ccc(Cl)cc3)C1)Cn1c-2c(C2CCCCC2)c2ccc(C(=O)NS(=O)(=O)N(C)C)cc21 (stereo not drawn),EC50,HCV replicon,3 to 1000 nM
same,IC50,HCV NS5B,3 to 1000 nM
COc1ccc2c(c1)C1CC1(C(=O)N1CCCN(Cc3cccnc3)CC1)Cn1c-2c(C2CCCCC2)c2ccc(C(=O)NS(=O)(=O)N(C)C)cc21 (stereo not drawn),EC50,HCV replicon,3 to 1000 nM
same,IC50,HCV NS5B,3 to 1000 nM
COc1ccc2c(c1)C1CC1(C(=O)N1CCCN(Cc3cccnc3)CC1)Cn1c-2c(C2CCCCC2)c2ccc(C(=O)NS(=O)(=O)C3CC3)cc21 (stereo not drawn),EC50,HCV replicon,3 to 1000 nM
same,IC50,HCV NS5B,3 to 1000 nM
COc1ccc2c(c1)C1CC1(C(=O)N1CCC[C@H]1CN1CCCC1)Cn1c-2c(C2CCCCC2)c2ccc(C(=O)NS(=O)(=O)C3CC3)cc21 (stereo partly drawn),EC50,HCV replicon,3 to 1000 nM
same,IC50,HCV NS5B,3 to 1000 nM
COc1ccc2c(c1)C1CC1(C(=O)N1CCCN(C(=O)OC(C)(C)C)CC1)Cn1c-2c(C2CCCCC2)c2ccc(C(=O)NS(=O)(=O)C(C)C)cc21 (stereo not drawn),EC50,HCV replicon,3 to 1000 nM
same,IC50,HCV NS5B,3 to 1000 nM
COc1ccc2c(c1)C1CC1(C(=O)N1CCCN(C(=O)OC(C)(C)C)CC1)Cn1c-2c(C2CCCCC2)c2ccc(C(=O)NS(C)(=O)=O)cc21 (stereo not drawn),EC50,HCV replicon,3 to 1000 nM
same,IC50,HCV NS5B,3 to 1000 nM
COc1ccc2c(c1)C1CC1(C(=O)N1CCN(C)CC1c1ccccc1)Cn1c-2c(C2CCCCC2)c2ccc(C(=O)NS(C)(=O)=O)cc21 (stereo not drawn),EC50,HCV replicon,3 to 1000 nM
same,IC50,HCV NS5B,3 to 1000 nM
COc1ccc2c(c1)C1CC1(C(=O)N1CCCN(Cc3cccnc3)CC1)Cn1c-2c(C2CCCCC2)c2ccc(C(=O)NS(C)(=O)=O)cc21 (stereo not drawn),EC50,HCV replicon,3 to 1000 nM
same,IC50,HCV NS5B,3 to 1000 nM
COc1ccc2c(c1)C1CC1(C(=O)N1CCCN(Cc3cccnc3)CC1)Cn1c-2c(C2CCCCC2)c2ccc(C(=O)NS(=O)(=O)N3CCC3)cc21 (stereo not drawn),EC50,HCV replicon,3 to 1000 nM
same,IC50,HCV NS5B,3 to 1000 nM
COc1ccc2c(c1)C1CC1(C(=O)N1CCCN(C(=O)OC(C)(C)C)CC1)Cn1c-2c(C2CCCCC2)c2ccc(C(=O)NS(=O)(=O)N3CCC3)cc21 (stereo not drawn),EC50,HCV replicon,3 to 1000 nM
same,IC50,HCV NS5B,3 to 1000 nM
COc1ccc2c(c1)C1CC1(C(=O)N1CCN(C)CC1c1ccccc1)Cn1c-2c(C2CCCCC2)c2ccc(C(=O)NS(=O)(=O)N3CCC3)cc21 (stereo not drawn),EC50,HCV replicon,3 to 1000 nM
same,IC50,HCV NS5B,3 to 1000 nM
C=CCN1CCN(C(=O)C23CC2c2cc(OC)ccc2-c2c(C4CCCCC4)c4ccc(C(=O)NS(=O)(=O)C(C)C)cc4n2C3)CC1 (stereo not drawn),EC50,HCV replicon,3 to 1000 nM
same,IC50,HCV NS5B,3 to 1000 nM
COc1ccc2c(c1)C1CC1(C(=O)N1CCN(C)C[C@@H]1c1ccccc1)Cn1c-2c(C2CCCCC2)c2ccc(C(=O)NS(=O)(=O)C(C)C)cc21 (stereo partly drawn),EC50,HCV replicon,3 to 1000 nM
same,IC50,HCV NS5B,3 to 1000 nM
